Results on five compounds are retold here after patent US20240277874A1, “FLUORESCENCE-MAGNETIC RESONANCE DUAL-MODALITY CONTRAST AGENT, PREPARATION METHOD THEREFOR AND USE THEREOF” (HAINAN POLY PHARMACEUTICAL CO., LTD., priority 2021, published 2024).

Series [1] is described as follows: Longitudinal relaxation rate (r1), 0.35T nuclear magnetic resonance imaging system, IR sequence. The format is physicochemical. To be noted: for r1 in BSA solution(1%): bovine serum protein solution (1%, w/w); for r1 in Water: pure water. The method, then:
The longitudinal relaxation rate (r1) of the contrast agent was determined in a 0.35T small nuclear magnetic resonance imaging system using an IR […] sequence. The relaxation rates of the contrast agent in pure water and in bovine serum protein solution (1%, w/w) in different solvents are shown in Table 3 below.

A short description of series [2]: Stability of the aqueous contrast agent solution at room temperature, relative content by HPLC. Format: physicochemical. To be noted: aqueous solution 0.1 mg/mL. How it is done:
The aqueous solution of the contrast agent (0.1 mg/mL) was left at room temperature and its stability was measured by calibrating its relative content by the HPLC method at different time points, and the stability of the contrast agent is shown in Table 4.

The test system of series [3] is ICR female mice. To be noted: mouse, in vivo, iv. The text has this: The maximum tolerated dose (MTD) of the contrast agent was preliminarily determined by administration to mice by tail intravenous injection.
Series [4] concerns ICR female mice. To be noted: value marked * with footnote not given; 60 is not among the tested doses; cited from earlier work.
The conditions of series [5]: normal people, 20 minutes after intravenous injection; cited from earlier work.
The test system of series [6] is liver and kidney of ICR mice. In words: Magnetic resonance T1-enhanced imaging (SE sequence) of liver and kidney after tail intravenous injection. The format is in vivo. Particulars: tail iv 5 mg/kg and 30 mg/kg, FIG. 1A. How it is done:
(§1) • 1. IR-820 (new indocyanine green) and 3,6,9-trioxaundecamethylenediamine (1:1-1:5 eq.) were added to the DMSO solution. And then the triethylamine as the deacid reagent was added to the mixture. The mixture reacted at 20-80° C. for 2 h. The desired product B01 was obtained after precipitation. • 2. B01 and DOTA-NHS ([…] is N-hydroxysuccinimide) (1:1-1:3 eq.) were dissolved in DMSO solution, and 1-20 equivalents of triethylamine was added to the mixture. The mixture reacted at 10-40° C. for 24 h. The desired product B02 was obtained after precipitation. • 3. B02 was reacted with 0.5-2 equivalents of gadolinium chloride hydrate in DMSO at 10-50° C. for 10 h-50 h, and the desired product PL-001 was obtained after precipitation, yield of 83%, purity of 91%. • 4. The final product was dissolved in pure water to create a solution. The product was administered to ICR mice by tail intravenous injection at doses of 5 mg/kg and 30 mg/kg, respectively. Magnetic resonance T1-enhanced imaging (SE sequence) was performed on the liver and kidney of the mice before and after the administration of the product. After the magnetic resonance imaging was completed, the livers and kidneys were removed for fluorescence imaging. […] From the figure, it can be seen that the magnetic resonance enhancement and fluorescence imaging results of the liver and kidney were basically consistent.

For series [7], the system named is liver and kidney of ICR mice. Nature of the series: Fluorescence imaging of removed livers and kidneys after magnetic resonance imaging. The format is in vivo. Particulars: 6 hours after administration, FIG. 1C. How it is done:
as §1

For series [8], the system named is murine hepatocellular carcinoma cells H22. Nature of the series: Cell entry rate of the contrast agent by flow cytometry. The format is cell-based. Particulars: compared among PL-002, PL-003, PL-004 and PL-006, FIG. 2. How it is done:
The cell entry rate of the contrast agent at the cell level was determined by flow cytometers. Logarithmically grown murine hepatocellular carcinoma cells H22 were collected and spread evenly in 12-well plates, with an approximate cell number of 1.5×10^5 per well.

For series [9], the system named is H22 liver in situ tumors in Balb/c mice. In words: Magnetic resonance T1-enhanced imaging of liver in situ tumors, GE 3.0T system. Particulars: Balb/c mice with H22 liver in situ tumor, 1 mg/mL solution, 5 mL/kg tail iv, FIG. 3. Format: in vivo. The method, then: Magnetic resonance imaging of liver in situ tumors with a contrast agent was performed using a GE 3.0T magnetic resonance imaging system. H22 cells were inoculated in Balb/c mice through liver in-situ injection, and liver conditions were observed through magnetic resonance. After the tumor was formed, 1 mg/mL contrast agent solution (5 mL/kg) was injected through the tail intravenous, and the liver was subjected to magnetic resonance T1-enhanced imaging at different time points after the administration of the agent.

The subject of series [10] is major organs of liver in situ tumor mice. Nature of the series: Tissue fluorescence of liver in situ tumor mice, small animal live imaging analyzer. The format is in vivo. To be noted: organs removed after magnetic resonance imaging, FIG. 4. The text has this:
Liver in situ tumor mice tissue fluorescence was observed by a small animal live imaging analyzer (Perkin Elmer). After magnetic resonance imaging, the major organs of the mice were removed and observed by live imaging, and the results are shown in FIG. 4.

Like-named read-outs stand apart in the source and are kept apart here.

`CC1(C)C(/C=C/C2=C(Oc3ccc(CCC(=O)NCCOCCOCCOCCNC(=O)CN4CCN(CC(=O)[O-])CCN(CC(=O)[O-])CCN(CC(=O)[O-])CC4)cc3)C(=C/C=C3/N(CCCCS(=O)(=O)O)c4ccc5ccccc5c4C3(C)C)/CCC2)=[N+](CCCCS(=O)(=O)O)c2ccc3ccccc3c21.[Gd+3]` [PL-002]: the “r1 in BSA solution(1%)” value in [1] worked out at 16.2 mM⁻¹ s⁻¹. In addition, the “r1 in Water” value in series [1] worked out at 11.8 mM⁻¹ s⁻¹. Besides, the decomposition rate % in series [2] (0 h) is on record as 0%; in series [2] (2 h), “<LOQ”; in series [2] (24 h), “<LOQ”; in series [2] (48 h), “<LOQ”. The compound also returned an MTD with ICR female mice [3] of 125 mg/kg.

Regarding `CC1(C)C(/C=C/C=C/C=C/C=C2\N(CCCCS(=O)(=O)O)c3ccc4ccccc4c3C2(C)C)=[N+](CCCCS(=O)(=O)[O-])c2ccc3ccccc3c21` [ICG, Indocyanine green], in the series with ICR female mice [4], the MTD is given as 60* mg/kg. For the same compound, the “eliminated from the blood” value in series [5] was “about 97%”.

`CC1(C)C(=CC=C2CCCC(C=CC3=[N+](CCCCS(=O)(=O)O)c4ccc5ccccc5c4C3(C)C)=C2NCCCOCCOCCOCCCNC(=O)CN2CCN(CC(=O)[O-])CCN(CC(=O)[O-])CCN(CC(=O)[O-])CC2)N(CCCCS(=O)(=O)O)c2ccc3ccccc3c21.[Gd+3]` [PL-001]: the decomposition rate % is 0% in [2] (0 h), 5.9% in series [2] (2 h), 40.0% in series [2] (24 h) and 65.4% in series [2] (48 h). The compound also had an MTD in the series with ICR female mice [3] of 75 mg/kg. For the same compound, the “magnetic resonance T1-enhanced imaging of liver and kidney” value in [6] is “significant enhancement of liver and kidney”. The “fluorescence imaging of liver and kidney” value in series [7] is “significant fluorescence of the liver and kidney”.

As for `CC1(C)C(/C=C/C2=C(Oc3ccc(CCC(=O)NCCOCCOCCNC(=O)CN4CCN(CC(=O)[O-])CCN(CC(=O)[O-])CCN(CC(=O)[O-])CC4)cc3)C(=C/C=C3/N(CCCCS(=O)(=O)O)c4ccc5ccccc5c4C3(C)C)/CCC2)=[N+](CCCCS(=O)(=O)O)c2ccc3ccccc3c21.[Gd+3]` [PL-004], the “r1 in BSA solution(1%)” value in series [1] amounted to 17.6 mM⁻¹ s⁻¹. Further, the “r1 in Water” value in series [1] came to 14.7 mM⁻¹ s⁻¹. In addition, the decomposition rate % in series [2] (0 h) is reported as 0%; in series [2] (2 h), “<LOQ”; in series [2] (24 h) it was “<LOQ”; in [2] (48 h) it was “<LOQ”. Besides, the MTD with ICR female mice [3] was found to be 125 mg/kg.

For `CC1(C)C(/C=C/C2=C(Oc3ccc(CCC(=O)NCCCCCCCCCCNC(=O)CN4CCN(CC(=O)[O-])CCN(CC(=O)[O-])CCN(CC(=O)[O-])CC4)cc3)C(=C/C=C3/N(CCCCS(=O)(=O)O)c4ccc5ccccc5c4C3(C)C)/CCC2)=[N+](CCCCS(=O)(=O)O)c2ccc3ccccc3c21.[Gd+3]` [PL-003], the “r1 in BSA solution(1%)” value in series [1] was determined as 18.9 mM⁻¹ s⁻¹. Besides, the “r1 in Water” value in series [1] amounted to 15.4 mM⁻¹ s⁻¹. For the same compound, the decomposition rate % was 0% in series [2] (0 h), “<LOQ” in series [2] (2 h), “<LOQ” in [2] (24 h) and “<LOQ” in [2] (48 h). The compound further showed an MTD with ICR female mice [3] of 150 mg/kg. The cell entry rate entry in [8] is “fastest cellular entry”. Moreover, the “magnetic resonance T1 enhancement of the tumor site” value in series [9] is reported as “better enhancement effect”. The “distinction of tumor from normal tissue and fluorescence intensity” value in series [10] was “tumor is distinguished from the normal tissue and has better fluorescence intensity”.
